How the values were obtained:
Assay type in all cases: cell-based, human
[1] = system: MCF7shctrl and MCF7shTau subclones; assay: Cell death by staining and flow cytometric analysis (Zombie NIR); settings: 100 nM TSA, 48 hours
Procedure: FIG. 1: Tau inhibition increases MCF7 breast cancer cell line sensitivity to TSA. (A) Tau protein expression in MCF7, MCF7shctrl and shTau were quantify by Elisa. (B) Effect of 100 nM TSA (48 h) on cell death in the MCF7shctrl and MCF7shTau subclones. Cell death was determined by staining and flow cytometric analysis as described in the materials and methods. (C) Effect of 100 nM TSA (48 h) on apoptosis in the MCF7shctrl and MCF7shTau subclones. Apoptosis was determined by flow cytometric analysis of the PI-positive and Annexin-V-positive cells as described in the materials and methods. (D) Cell cycle distribution was determined by FACS analysis of combined propidium iodide and EdU staining in MCF7shctrl and MCF7shTau in the absence or presence 100 nM TSA, 48 h. Data are mean±SD **P<0.01***P<0.001. […]
SH-SY5Y human neuroblastoma cells expressing Tau4R tagged with the streptavidin-binding peptide (SBP) (referred as SH-SY5Y-(SBP)Tau4R) (Chauderlier et al., 2018), SH-SY5Y-Tet-on-Tau4R, Hela cells, MCF7 and MDA-MB-231 were cultured in Dulbecco's Modified Eagle's Medium with 10% fetal bovine serum, 2 mM L-glutamine and 50 U/ml penicillin/streptomycin (Gibco) at 37° C. in 5% CO2 humidified air. […] For stable clones, luciferase activities were measured using the luciferase assay system (Promega) and normalized against protein concentration. […]

[2] = system: MCF7shctrl and MCF7shTau; assay: Cell cycle distribution by FACS (propidium iodide and EdU staining); settings: 100 nM TSA, 48 h
Procedure: FIG. 1: Tau inhibition increases MCF7 breast cancer cell line sensitivity to TSA. (A) Tau protein expression in MCF7, MCF7shctrl and shTau were quantify by Elisa. (B) Effect of 100 nM TSA (48 h) on cell death in the MCF7shctrl and MCF7shTau subclones. Cell death was determined by staining and flow cytometric analysis as described in the materials and methods. (C) Effect of 100 nM TSA (48 h) on apoptosis in the MCF7shctrl and MCF7shTau subclones. Apoptosis was determined by flow cytometric analysis of the PI-positive and Annexin-V-positive cells as described in the materials and methods. (D) Cell cycle distribution was determined by FACS analysis of combined propidium iodide and EdU staining in MCF7shctrl and MCF7shTau in the absence or presence 100 nM TSA, 48 h. Data are mean±SD **P<0.01***P<0.001. All results are representative of three independent experiments.
SH-SY5Y human neuroblastoma cells expressing Tau4R tagged with the streptavidin-binding peptide (SBP) (referred as SH-SY5Y-(SBP)Tau4R) (Chauderlier et al., 2018), SH-SY5Y-Tet-on-Tau4R, Hela cells, MCF7 and MDA-MB-231 were cultured in Dulbecco's Modified Eagle's Medium with 10% fetal bovine serum, 2 mM L-glutamine and 50 U/ml penicillin/streptomycin (Gibco) at 37° C. in 5% CO2 humidified air. Transient and stable transfections experiments were performed using the lipofectamine 3000 reagent (Invitrogen). Transient luciferase assays were performed with the dual-luciferase assay system (Promega). For stable clones, luciferase activities were measured using the luciferase assay system (Promega) and normalized against protein concentration. […]
Cell cycle, Cell death and Apoptosis were analyzed with the Click-It Plus EdU Alexa Fluor 647 kit (Thermofisher), Zombie NIR dye (Zombie NIR Fixable Viability Kit—Biolegend) and Annexin V-FITC Apoptosis Detection Kit II (Calbiochem) according to the manufacturer's guideline. Fluorescence was analyzed using a LSR FORTESSA X20 cytometer (Becton Dickinson).

[3] = system: GADD45a; assay: GADD45a expression by real-time PCR; settings: 100 nM TSA, 24 h
Procedure: (§1) (A) Representative confocal sections of MCF7shctrl and shTau cells untreated or treated with 100 nM TSA for 24 h. […] (B) Quantification of HP1α clusters per nuclei visualized as described previously and realized on three independent experiments. (C) GADD45a and (D) p21 (CDKN1a) expression in MCF7shctrl and shTau cells untreated or treated with 100 nM TSA for 24 h were analyzed by real-time PCR and normalized to RPLO. Results are expressed, relative to the basal activity set to 1, as the mean±SD of three independent assays. (E) Tau tethering prevents adjacent reporter gene activity induced by TSA. GAL4UAS responsive luciferase reporter Hela stable cell line was transfected with GAL4DBD (GAL4) or GAL4DBD-Tau4R and then, 24 h later, treated with TSA (600 nM) for 24 h. The luciferase activity was determined as described in the Materials and Methods. (F) Ectopic Tau4R expression prevents adjacent reporter gene activity induced by TSA. […] The luciferase activity was determined as described in the Materials and Methods. […]
(§2) Total RNA was prepared using RNeasyMinikit (Qiagen). Reverse transcription (RT) was performed using random hexamers as recommended by the manufacturer (Applied Biosystems). cDNAs were analyzed by PCR amplification using the TaqMan PCR master mix (Applied Biosystems) and a mix of RPLO primers and probes. […]

[4] = system: p21 (CDKN1a); assay: p21 (CDKN1a) expression by real-time PCR; settings: 100 nM TSA, 24 h
Procedure: as §1, §2

[5] = MCF7shctrl cells, relative to basal
[6] = cells with reduced Tau expression (MCF7shTau) vs MCF7shctrl

`CC(/C=C/C(=O)NO)=C\[C@@H](C)C(=O)c1ccc(N(C)C)cc1` [TSA, 2,4-Heptadienamide, 7-[4-(dimethylamino)phenyl]-N-hydroxy-4,6-dimethyl-7-oxo-, (2E,4E,6R)-] was tested. Which “number of dead cells” value ([1]; Tau-knockdown cells (MCF7shTau)) did it give?
Its value is > 50%.

And the “number of dead cells” value ([1]; sh-ctrl cells (MCF7shctrl))?
Its value is 38%.

What about the “cells in G1” value ([2]; MCF7shTau) of the same compound?
The value was 41.4%.

What about the “cells in G1” value ([2]; MCF7shctrl) of the same compound?
Its value is 39.6%.

What about the “cells in S-phase” value ([2]; MCF7shctrl) of the same compound?
Its value is 19.2%.

And the “GADD45a induction (RT-qPCR)” value [3, 5]?
The value was 3 fold.

And the “GADD45a upregulation by TSA” value [3, 6]?
Its value is “exacerbated”.

What about the “p21 induction (RT-qPCR)” value [4, 5] of the same compound?
The value was 2.5 fold.

What about the “p21 upregulation by TSA” value [4, 6] of the same compound?
Its value is “exacerbated”.
